Reference: patent EP4122499A1, “FIBROBLAST ACTIVATION PROTEIN INHIBITORS AND USE THEREOF” (3B Pharmaceuticals GmbH, priority 2021, dated 2023)

Tests used:
HEK-FAP cells = molecular target: T1, HEK-FAP cells (Homo sapiens, UniProt Q12884); test: LigandTracer assay with 111In-labeled compounds; type: binding; details: 111In-labeled compound; for kon: association rate, read-out: ka
T1 construct: expressed in transfected cells; host or cells: HEK293
T1 sequence (Q12884 1-760): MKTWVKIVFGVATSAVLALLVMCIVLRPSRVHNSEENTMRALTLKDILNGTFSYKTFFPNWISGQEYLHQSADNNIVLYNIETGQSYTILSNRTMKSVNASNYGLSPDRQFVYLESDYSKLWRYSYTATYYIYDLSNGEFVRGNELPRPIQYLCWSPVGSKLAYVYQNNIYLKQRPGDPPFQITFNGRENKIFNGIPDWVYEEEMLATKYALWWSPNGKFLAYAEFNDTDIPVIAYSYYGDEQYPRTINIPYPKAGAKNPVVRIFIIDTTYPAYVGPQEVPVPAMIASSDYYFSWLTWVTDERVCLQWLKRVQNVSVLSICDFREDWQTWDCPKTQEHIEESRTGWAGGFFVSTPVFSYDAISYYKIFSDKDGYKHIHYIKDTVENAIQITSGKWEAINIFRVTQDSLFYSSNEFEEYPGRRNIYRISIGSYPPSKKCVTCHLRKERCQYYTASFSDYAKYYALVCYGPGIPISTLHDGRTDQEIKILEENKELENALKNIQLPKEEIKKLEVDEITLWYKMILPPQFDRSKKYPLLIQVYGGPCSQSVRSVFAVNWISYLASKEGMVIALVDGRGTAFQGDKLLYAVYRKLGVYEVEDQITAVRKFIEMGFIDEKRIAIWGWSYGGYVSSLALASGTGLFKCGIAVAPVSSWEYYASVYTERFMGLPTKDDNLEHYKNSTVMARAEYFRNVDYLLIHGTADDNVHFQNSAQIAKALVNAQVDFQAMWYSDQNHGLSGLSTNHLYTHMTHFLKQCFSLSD
Method: HEK293 cells (human embryonic kidney cells) were engineered to express the human FAP. […] Cell concentrations were adjusted to 3 x 10^5 mL^-1, and 3.000 µL of the suspension was dispensed into a poly-lysine-coated, clear cell dish (10cm). Approximately 24 hours after re-seeding, the medium was replaced by assay medium (Ham's medium with 20 mM HEPES) containing 1 % FCS. The dish was placed in the LigandTracer® device and a baseline measurement was obtained using the LigandTracer® Control software (version 2.4). […] To determine the dissociation rate (kd) the cells were washed and subsequently incubated with fresh assay medium for several hours. […] Table 14 Results of the LigandTracer® assay

recombinant human PREP = molecular target: T2, recombinant human PREP (Homo sapiens, UniProt P48147); test: PREP protease activity assay; type: biochemical; details: 50 µM Z-GP-AMC substrate
T2 construct: purchased R&D systems 4308-SE
T2 sequence (P48147 1-710): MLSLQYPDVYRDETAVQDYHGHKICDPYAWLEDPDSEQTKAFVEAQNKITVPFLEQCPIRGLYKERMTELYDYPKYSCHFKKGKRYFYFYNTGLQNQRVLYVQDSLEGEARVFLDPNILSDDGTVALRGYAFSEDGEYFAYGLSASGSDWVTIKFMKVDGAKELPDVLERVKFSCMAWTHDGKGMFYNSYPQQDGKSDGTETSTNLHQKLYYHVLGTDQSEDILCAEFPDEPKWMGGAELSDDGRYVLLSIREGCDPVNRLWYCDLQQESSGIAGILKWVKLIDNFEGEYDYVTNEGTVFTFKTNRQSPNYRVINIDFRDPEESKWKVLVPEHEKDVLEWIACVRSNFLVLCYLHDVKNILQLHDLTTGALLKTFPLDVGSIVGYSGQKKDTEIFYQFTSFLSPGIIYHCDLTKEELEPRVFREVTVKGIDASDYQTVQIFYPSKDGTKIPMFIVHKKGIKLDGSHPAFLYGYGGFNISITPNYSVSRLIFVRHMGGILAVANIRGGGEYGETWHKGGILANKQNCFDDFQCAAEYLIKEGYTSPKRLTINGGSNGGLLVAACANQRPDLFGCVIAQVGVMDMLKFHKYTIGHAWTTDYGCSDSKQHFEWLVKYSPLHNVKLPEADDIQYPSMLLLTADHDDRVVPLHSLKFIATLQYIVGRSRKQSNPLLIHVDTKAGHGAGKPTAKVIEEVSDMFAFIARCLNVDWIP
Method: (§1) The PREP activity assay was performed using the FACS buffer (PBS including 1% FBS, Sigma-Aldrich, Cat# D8537). […] The DPP4 activity assay was performed in DPP assay buffer (25 mM Tris, pH 8.0).
(§2) Four parameter logistic (4PL) curve fitting and pIC50 calculations were performed using ActivityBase software.

Human recombinant FAP = molecular target: T3, Human recombinant FAP (Homo sapiens, UniProt Q12884); test: FRET-based FAP protease activity assay (human); type: biochemical; parameters: purchased R&D systems 3715-SE; details: FRET-peptide substrate, 37°C, read-out: pIC50 (Activity) (converted)
T3 sequence (Q12884 1-760): T1 sequence (Q12884 1-760)
Method: (§3) In order to determine the inhibitory activity a FRET-based FAP protease activity assay was established.
25 µL of a 30 µM substrate solution, diluted in assay buffer, was added. […] Four parameter logistic (4PL) curve fitting and pIC50 calculations were performed using ActivityBase software (IDBS).

[1] = molecular target: T4, FAP-expressing human WI-38 fibroblasts (Homo sapiens, UniProt Q12884); test: Competitive FACS binding assay (displacement of Cy5-labeled FAP inhibitor 3BP-2935); details: 3 nM Cy5-labeled 3BP-2935, 4°C, 1 hour
T4 construct: FAP-expressing human WI-38 fibroblasts (ECACC 90020107) were cultured in EMEM; host or cells: WI-38 human fibroblasts
T4 sequence (Q12884 1-760): T1 sequence (Q12884 1-760)
Method: In order to determine binding of compounds according to the present invention to FAP-expressing cells, a competitive FACS binding assay was established.
Cells were diluted in FACS buffer to a final concentration of 100.000 cells per ml and 200 µl of the cell suspension are transferred to a u-shaped non-binding 96-well plate (Greiner).
Cell were washed twice with FACS buffer (see above) and resuspended in 200 µl FACS buffer. Cells were analyzed in an Attune NxT flow cytometer (Thermo Fisher Scientific). Median fluorescence intensities (Cy5 channel) was calculated by Attune NxT software and plotted against test compound concentrations. Four parameter logistic (4PL) curve fitting and pIC50 calculations were performed using ActivityBase software.

Recombinant mouse FAP = molecular target: T5, Recombinant mouse FAP (Mus musculus, UniProt P97321); test: FRET-based FAP protease activity assay (mouse); type: biochemical; details: FRET-peptide substrate, 37°C, read-out: pIC50 (mouseFAP) (converted)
T5 construct: purchased R&D systems 8647-SE
T5 sequence (P97321 1-761): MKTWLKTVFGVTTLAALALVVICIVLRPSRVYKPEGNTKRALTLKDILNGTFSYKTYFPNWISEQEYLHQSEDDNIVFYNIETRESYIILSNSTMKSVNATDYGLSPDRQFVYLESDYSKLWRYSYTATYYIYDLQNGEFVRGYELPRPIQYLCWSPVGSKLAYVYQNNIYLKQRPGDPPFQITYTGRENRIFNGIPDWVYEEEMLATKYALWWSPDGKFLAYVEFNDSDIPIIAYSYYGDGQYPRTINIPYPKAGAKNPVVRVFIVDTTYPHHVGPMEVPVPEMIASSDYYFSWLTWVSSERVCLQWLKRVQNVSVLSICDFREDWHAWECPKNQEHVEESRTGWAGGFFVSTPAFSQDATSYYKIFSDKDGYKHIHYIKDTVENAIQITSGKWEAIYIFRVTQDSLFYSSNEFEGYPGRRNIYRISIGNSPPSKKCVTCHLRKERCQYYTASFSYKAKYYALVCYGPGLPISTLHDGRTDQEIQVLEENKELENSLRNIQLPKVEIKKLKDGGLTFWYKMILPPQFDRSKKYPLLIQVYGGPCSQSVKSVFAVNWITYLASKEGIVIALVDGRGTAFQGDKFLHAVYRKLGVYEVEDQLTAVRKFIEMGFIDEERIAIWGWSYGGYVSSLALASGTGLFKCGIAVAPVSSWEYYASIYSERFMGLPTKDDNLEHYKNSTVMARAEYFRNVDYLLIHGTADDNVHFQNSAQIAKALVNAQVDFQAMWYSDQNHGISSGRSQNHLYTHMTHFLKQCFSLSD
Method: as §3
25 µL of a 30 µM substrate solution, diluted in assay buffer, was added. […] Four parameter logistic (4PL) curve fitting and pIC50 calculations were performed using ActivityBase software.

Recombinant human DPP4 = molecular target: T6, Recombinant human DPP4 (Homo sapiens, UniProt P27487); test: DPP4 protease activity assay; type: biochemical; details: 20 µM GP-AMC substrate; read-out: pIC50 (DPP4) (converted)
T6 construct: purchased R&D systems 9168-SE
Method: as §1, §2

T6 sequence (P27487 whole entry): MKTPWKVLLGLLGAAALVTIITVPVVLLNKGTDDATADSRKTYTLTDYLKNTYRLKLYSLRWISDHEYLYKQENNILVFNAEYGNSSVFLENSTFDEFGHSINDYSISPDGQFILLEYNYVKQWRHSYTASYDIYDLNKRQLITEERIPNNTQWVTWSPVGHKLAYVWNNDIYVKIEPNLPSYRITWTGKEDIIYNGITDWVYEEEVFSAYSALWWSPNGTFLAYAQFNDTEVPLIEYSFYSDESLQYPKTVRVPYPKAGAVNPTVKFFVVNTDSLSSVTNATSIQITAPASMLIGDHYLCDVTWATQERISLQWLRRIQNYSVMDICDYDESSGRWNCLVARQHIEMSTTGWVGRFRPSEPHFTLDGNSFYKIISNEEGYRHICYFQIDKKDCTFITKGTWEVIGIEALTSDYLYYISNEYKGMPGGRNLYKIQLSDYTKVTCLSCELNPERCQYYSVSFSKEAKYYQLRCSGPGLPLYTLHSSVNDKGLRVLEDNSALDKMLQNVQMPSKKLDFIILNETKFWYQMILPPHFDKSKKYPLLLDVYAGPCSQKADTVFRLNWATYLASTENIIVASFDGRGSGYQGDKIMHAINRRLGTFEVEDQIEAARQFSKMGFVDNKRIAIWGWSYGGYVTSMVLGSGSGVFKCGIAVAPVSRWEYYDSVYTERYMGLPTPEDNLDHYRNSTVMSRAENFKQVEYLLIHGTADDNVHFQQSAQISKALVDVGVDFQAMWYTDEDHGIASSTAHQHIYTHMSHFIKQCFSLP

IC50 (recombinant human PREP) [nM] | IC50 (Human recombinant FAP) [nM] | IC50 [1] [nM] | IC50 (Recombinant mouse FAP) [nM] | IC50 (Recombinant human DPP4) [nM] | SMILES | HL (HEK-FAP cells) [min] | pKD (HEK-FAP cells) | kon (HEK-FAP cells) [M⁻¹ s⁻¹]
 |  |  |  |  | O=C(O)CN1CCN(CC(=O)O)CCN(CC(=O)N2CCN(CCCOc3ccc4nccc(C(=O)NCC(=O)N5CCC[C@H]5C(=O)c5nc6ccccc6o5)c4c3)CC2)CCN(CC(=O)O)CC1 [Compound 3BP-4808] | 20 ± 5 | 8.2 ± 0.0 | 94000
1.26 | 79.4 | 251 | 126 |  | Cc1nc(C(=O)[C@@H]2CCCN2C(=O)CNC(=O)c2ccnc3ccccc23)no1 |  |  | 
> 1000 | 2 | 3.98 |  | > 1000 | N#C[C@@H]1CCCN1C(=O)CNC(=O)c1ccnc2cc(-c3ccc(C(=O)O)cc3)ccc12 |  |  | 
 |  |  |  |  | O=C(O)CN1CCN(CC(=O)O)CCN(CC(=O)N2CCN(CCNC(=O)c3ccc(-c4ccc5c(C(=O)NCC(=O)N6CCC[C@H]6C(=O)c6nc7ccccc7o6)ccnc5c4)cc3)CC2)CCN(CC(=O)O)CC1 [Compound 3BP-4665] | 22 ± 16 | 8.8 ± 0.2 | 220000
